A short description of data set [1]: Acute toxicity (toxicité aiguë). Format: in vivo. The settings on record: mouse, in vivo, po, 1000 mg/kg, mice, 1000 mg/kg oral; read-out: mortalité. Here is the method:
(§1) Des tests de toxicité aiguë pratiqués sur souris ont montré qu'à la dose de 1000 mg/kg, par voie orale, la mortalité provoquée par le n-propyl-3 hexanoate de magnésium et le n-propyl-3 hexanamide est respectivement de 40% et 0%.
(§2) A titre de comparaison, le n-propyl-3 hexanoate de sodium à la dose de 1000 mg/kg par voie orale provoque déjà 80% de mortalité.

Another data set concerns Crise pentétrazolique. As to the kind of experiment: Pentetrazol seizure test (Crise pentétrazolique). The settings on record: mice, 15 minutes after administration of pentetrazol; for ED50: Mus musculus, po, 0.25 h, read-out: DE50 (the source's name). It counts as in vivo, souris. Here is the method:
Ce test, pratiqué sur souris par voie orale, est identique à celui décrit dans le brevet français N° 2.276.036.
Les DE50 obtenues 15 minutes après l'administration du pentécra- zol sont reprises ci-dessous comparativement aux résultats trouvés pour les sels de sodium correspondants : [drawing 12]

For data set [2], the system named is Crise à l'acide β-mercaptopropionique. The experiment in a line: β-mercaptopropionic acid seizure test (Crise à l'acide β-mercaptopropionique). To be noted: for ED50: Mus musculus, po. Format: in vivo, souris. Here is the method: L'acide p-mercaptopropionique est un inhibiteur de la glutamate décarboxylase (G.A.D.), enzyme qui catalyse la transformation du glutamate en acide y-aminobutyrique (GABA). Son action se traduit donc par un abaissement du taux de GABA et la survenue de crises généralisées tonico-cloniques 3 à 4 minutes après son administration.
L'acide β-mercaptopropionique a été administré à des lots de 10 souris mâles, par voie intrapéritonéale, à la dose de 70 mg/kg, 30 minutes après l'administration orale d'une dose du composé à étudier. On note le pourcentage des animaux protégés contre la crise tonique 15 minutes après l'administration de l'acide β-mercaptopropionique.

Another data set concerns Anoxie par confinement. As to the kind of experiment: Anoxia by confinement (Anoxie par confinement). Format: in vivo, souris. To be noted: for % d'augmentation du temps de survie: male mice, 75 mg/kg intraperitoneal, versus controls. The protocol: Des lots de 15 souris mâles sont traités au moyen d'une dose de composé à étudier puis chaque animal est placé dans une enceinte hermétiquement close de 200 cm^3. L'animal est considéré comme mort au moment de l'arrêt respiratoire.
On détermine alors le % d'augmentation du temps de survie par rapport à des témoins.
On trouvera ci-dessous des résultats obtenus avec des composés de l'invention à la dose de 75 mg/kg par voie intrapéritonéale : [drawing 14]

A short description of data set [3]: Solubility and pH of aqueous solution. Format: physicochemical. The settings on record: for solubility: water.
The test system of the next data set is souris. The experiment in a line: Acute toxicity (toxicité aiguë). It counts as in vivo. The settings on record: mice, 1000 mg/kg oral. Here is the method: as §1, §2
Data set [4] relates to activité anticonvulsivante. As to the kind of experiment: Pharmacological studies of anticonvulsant activity (method not specified). Format: in vivo. To be noted: at identical doses, compared with di-n-propylacétate de sodium.
[5] abbreviates: male mice, compound oral 30 minutes before β-mercaptopropionic acid 70 mg/kg i.p., protection against tonic seizure 15 minutes after, read-out: DE50 (the source's name).
Where [6] appears, read: male mice, compound oral 30 minutes before β-mercaptopropionic acid 70 mg/kg i.p., protection against tonic seizure 15 minutes after.

The structures appear in SMILES notation. Values after ≈ are worked out from the molar mass of the structure shown. Read-outs that look alike come from different tables or passages of the source.

The results in this text go back to patent EP0005422A2, “Derivatives of omega-dialkylalkanoic acids, processes for their preparation and their therapeutical use” (SANOFI S.A., priority 1978, dated 1979).

For `CCCC(CCC)CC(N)=O` [Y=NH2, n=0, n-propyl-3 hexanamide], the mortality in data set [1] stood at 0%. The ED50 with Crise pentétrazolique is 65 mg/kg; in data set [2] (setting [5]) it was 106 mg/kg.
Take `CCCC(CCC)CCC(N)=O` [Y=NH2, n=1, n-propyl-4 heptanamide]: in the data set with Crise pentétrazolique, the ED50 was found to be 104 mg/kg. Besides, in the data set on Anoxie par confinement, the “% d'augmentation du temps de survie” value was 15%.
`CCCC(CCC)CCCC(N)=O` [Y=NH2, n=2, n-propyl-5 octanamide]: the ED50 in the data set on Crise pentétrazolique was 121 mg/kg; in data set [2] (setting [5]) it was 129 mg/kg. In addition, in the data set on Anoxie par confinement, the “% d'augmentation du temps de survie” value was 64%.
With `CCCC(CCC)CCC(=O)O` [Y=OCa1/2, n=1, n-propyl-4 heptanoate de calcium], the “% d'augmentation du temps de survie” value in the data set on Anoxie par confinement worked out at 27%. For the same compound, in data set [2] (setting [6]), the DE50 was determined as 101 mg/kg. Further, the solubility in data set [3] (dissolves very slowly, read-out: se dissout dans l'eau) is 1000 mg/mL.
With `CCCC(CCC)CC(=O)O` [Y=OMg1/2, n=0, n-propyl-3 hexanoate de magnésium], in the data set with souris, the mortalité was determined as 40%. In the data set on Anoxie par confinement, the “% d'augmentation du temps de survie” value was 36%. The DE50 in data set [2] (setting [6]) came to 145 mg/kg. Further, in data set [3] (2% aqueous solution, slightly opalescent), the pH was 9,4.
On to `CCCC(CCC)CCCC(=O)O` [Y=OMg1/2, n=2, n-Propyl-5 octanoate de magnésium], for which the DE50 is 152 mg/kg with Crise pentétrazolique (oral route, 15 min) and 124 mg/kg in data set [2] (setting [6]). Besides, the “% d'augmentation du temps de survie” value with Anoxie par confinement is reported as 56%. Also, the “solubilité dans les solvants organiques” value in data set [3] (organic solvents) is “Bonne solubilité”. The solubility in data set [3] (read-out: Solubilité dans l'eau) was found to be 1 mg/mL (≈ 5.37 mM).
The compound `CCCC(CCC)CC(=O)O` [Y=ONa, n=0, n-propyl-3 hexanoate de sodium, reference compound] yielded a mortalité in the data set with souris of 80%. Further, the ED50 with Crise pentétrazolique was 95 mg/kg; in data set [2] (setting [5]), 168 mg/kg.
Regarding `CCCC(CCC)CCC(=O)O` [Y=ONa, n=1, reference compound], the ED50 in the data set on Crise pentétrazolique came to 119 mg/kg; in data set [2] (setting [5]) it was 124 mg/kg.
As for `CCCC(CCC)CCCC(=O)O` [Y=ONa, n=2, reference compound], in the data set with Crise pentétrazolique, the ED50 came to 172 mg/kg.
With `CCCC(CCC)C(=O)O` [di-n-propylacétate de sodium, reference compound], the “augmentation du temps de survie” value with Anoxie par confinement (200 mg/kg intraperitoneal, comparative test) stood at 32%. The ED50 in data set [2] (read-out: DE50) turned out to be 175 mg/kg.
As to `CCCC(CCC)C(=O)O` [sel de calcium], the potentialités anticonvulsivantes entry in data set [4] is on record as “sensiblement équivalentes à celles du di-n-propylacétate de sodium et même légèrement inférieures”.
